In US9926326B2, “Substituted thioxanthenone autophagy inhibitors” (THE CLEVELAND CLINIC FOUNDATION, priority 2014, dated 2018):

How the values were obtained:
A498 = experiment: 72 h MTT assay, A498; format: cell-based; details: Homo sapiens, A498, Renal
Protocol: (§1) Cells and cell culture. A498, 786-0, Achn and Caki-2 cells were obtained from ATCC (Manassas. Va.). Cells were cultured with medium supplemented with 10% FBS at 37° C. with 5% CO2 as previously described. Swords et al., Blood 2010; 115:3796.800. Human normal renal proximal tubule epithelial cells (RPTEC) were purchased from Clonetics (Walkersville, Md.) and cultured in REGM media (REGM BulletKit, Clonetics). Cell lines were authenticated by the source banks using DNA profiling techniques and were used for this study in accordance with AACR guidelines.
(§2) Quantification of drug-induced cytotoxicity. Cell viability was assessed by MIT assay. Cells were seeded into 96-well microculture plates at […] per well and allowed to attach for 24 h. Cells were then treated with ROC-325 or HCQ for 72 h. Following drug treatment, MTT was added and cell viability was quantified using a BioTek (Winooski, Vt.) microplate reader. Pro-apoptotic effects following in vitro drug exposure were quantified by propidium iodide (PI) staining and fluorescence-activated cell sorting (FACS) analysis of sub-G0/G1 DNA content as previously described and by measurement of active caspase-3 by flow cytometry using a commercial kit (BD Biosciences, San Jose, Calif.). Mahalingam et al., Clin Cancer Res 2010; 16:141-53.

A549 = experiment: 72 h MTT assay, A549; format: cell-based; details: Homo sapiens, A549, Lung
Protocol: as §2

CFPAC-1 = experiment: 72 h MTT assay, CFPAC-1; format: cell-based; details: Homo sapiens, CFPAC-1, Pancreas
Protocol: as §2

COLO-205 = experiment: 72 h MTT assay, COLO-205; format: cell-based; details: Homo sapiens, COLO-205, Colon
Protocol: as §2

DLD-1 = experiment: 72 h MTT assay, DLD-1; format: cell-based; details: Homo sapiens, DLD-1, Colon
Protocol: as §2

IGROV-1 = experiment: 72 h MTT assay, IGROV-1; format: cell-based; details: Homo sapiens, IGROV-1, Ovarian
Protocol: as §2

MCF-7 = experiment: 72 h MTT assay, MCF-7; format: cell-based; details: Homo sapiens, MCF7, MCF-7, Breast
Protocol: as §2

MiaPaCa-2 = experiment: 72 h MTT assay, MiaPaCa-2; format: cell-based; details: Homo sapiens, MIA PaCa-2, MiaPaCa-2, Pancreas
Protocol: as §2

NCI-H69 = experiment: 72 h MTT assay, NCI-H69; format: cell-based; details: Homo sapiens, NCI-H69, Lung
Protocol: as §2

PC-3 = experiment: 72 h MTT assay, PC-3; format: cell-based; details: Homo sapiens, PC-3, Prostate
Protocol: as §2

RL = experiment: 72 h MTT assay, RL; format: cell-based; details: Homo sapiens, NHL
Protocol: as §2

UACC-62 = experiment: 72 h MTT assay, UACC-62; format: cell-based; details: Homo sapiens, UACC-62, Melanoma
Protocol: as §2

[1] = Carew et al., J Biol Chem 2011; cited from earlier work
[2] = test system: 12 different human cancer cell lines; experiment: Direct comparison of in vitro anticancer effects in 12 cancer cell lines (MTT); format: cell-based; details: all 12 models tested, 72 h MTT
Protocol: as §2

[3] = test system: RCC cell lines (786-0, A498, Achn, and Caki-2); experiment: MTT cell viability in RCC cell lines; format: cell-based, human; details: 72 hours
Protocol: as §1, §2

[4] = test system: normal renal proximal tubule endothelial cells (RPTEC); experiment: MTT cell viability in normal renal cells; format: cell-based, human; details: 72 hours
Protocol: as §1, §2

RCC cells [5] = experiment: Apoptosis: active caspase-3 flow cytometry and PI-FACS DNA fragmentation; format: cell-based, human; details: 48 hours
Protocol: as §2

786-0 RCC xenografts = experiment: In vivo evaluation in 786-O RCC xenografts; design: species or system nude mice
Protocol: In vivo evaluation of ROC-325 and HCQ. 786-O renal cancer cells (5×106) were suspended in a mixture of HBSS and Matrigel and subcutaneously implanted into female nude mice (BALB/c background). Tumor-bearing animals from each cell line xenograft were randomized into treatment groups. Mice were treated with vehicle (water), ROC-325 (25, 40, and 50 mg/kg PO), or HCQ (60 mg/kg IP) QD×5 for 6 weeks. Mice were monitored daily and tumor volumes were measured twice weekly. At study completion, tumors from representative animals were excised from each group, […], and paraffin-embedded for immunohistochemical analysis.
Immunohistochemistry. Paraffin-embedded tumor sections were deparaffinized in xylene, exposed to a graded series of alcohol, and rehydrated in PBS (pH 7.5). Heat-induced epitope retrieval on paraffin-embedded sections and probing with specific antibodies was conducted as previously described. Nawrocki et al., Clin Cancer Res 2013; 19:3577-90. Positive reactions were visualized using 3,3′-diaminobenzidine (Dako, Glostrup, Denmark). Images were captured using an Olympus fluorescent microscope (Center Valley. Pa.) with a DP71 camera and a 20× objective. Image-Pro Plus software Version 6.2.1 (MediaCybernetics, Bethesda, Md.) was used for image acquisition. ImageJ software was used for quantification of LC3B and p62 levels by densitometric analysis of five random fields containing viable tumor cells. Quantification of cleaved caspase-3 was conducted by counting the number of positive cells in five random fields as previously described. Carew et al., Cancer Res 2008; 68:4783-90.

A498 and 786-O cells = experiment: Giemsa staining, vacuolization; format: cell-based, human; details: 5 μM, 24 h
Protocol: Giemsa staining. Cells were plated in chamber slides as previously described and treated with ROC-325 for 24 h. Carew et al., J Biol Chem 2011; 286:6602-13. Following drug treatment, cells were washed with PBS and fixed in methanol for 5 minutes. Cells were then incubated for 1 h in Giemsa stain diluted 1:20 with deionized water. Cells were rinsed with water and imaged using an Olympus fluorescent microscope. Image-Pro Plus software Version 6.2.1 was used for image acquisition.

RCC cells [6] = experiment: Transmission electron microscopy; format: cell-based, human; details: 5 μM, 24 h
Protocol: Transmission electron microscopy. Transmission electron microscopy of cells was performed as previously described. Carew et al., J Cell Mol Med 2010 Oct.; 14(10):2448-59. RCC cells were treated with ROC-325 for 24 h and harvested for imaging. Briefly, sections were cut in an LKB Ultracut microtome (Leica. Deerfield, Ill.), stained with uranyl acetate and lead citrate, and examined in a JEM 1230 transmission electron microscope (JEOL, USA, Inc., Peabody, Mass.). Images were captured using the AMT Imaging System (Advanced Microscopy Techniques Corp, Danvers. Mass.).

786-O and A498 cells = experiment: Acridine orange staining of acidic lysosomes; format: cell-based, human; details: 24 h
Protocol: Acridine orange staining. Acidic lysosomes were visualized by acridine orange staining as previously described. Carew et al., J Biol Chem 2011; 286:6602-13. After treatment with ROC-325 for 24 h, cells were stained with 1 μM acridine orange for 15 minutes at 37° C. Cells were washed with PBS and images were captured using an Olympus fluorescent microscope. Acidic lysosomes appear as orange fluorescent cytoplasmic vesicles. Quantification of 5 random fields of acridine orange intensity and image acquisition were performed using Image-Pro Plus software Version 6.2.1.

cathepsin D (CTSD) = experiment: Cathepsin D expression, microarray and qRT-PCR; format: cell-based, human; details: A498 and 786-0, 5 μM, 24 hours; confirmed by qRT-PCR
Protocol: Expression microarrays. RCC cells were treated with […] for 24 h. Total RNAs were isolated using the RNeasy Plus Mini Kit (Qiagen, Germantown, Md.) and treated with TURBO DNA-Free™ Kit (Applied Biosystems, Foster City, Calif.), 300 ng of total RNA per sample was amplified and hybridized to GeneChip® Human Gene 1.0 ST arrays (Affymetrix, Inc., Santa Clara, Calif.) according to the manufacturer's instructions. Affymetrix CEL files were imported into Partek® Genomics Suite™ 6.4 (Partek Inc., St. Louis. Mo.) using the default Partek normalization parameters and the robust multi-array average (RMA) analysis adjusted for probe sequence and GC content (GC-RMA). Data normalization was performed across all arrays using quantile normalization.
Quantitative real time polymerase chain reaction, cDNA from ROC-325 treated cells were used for relative quantification by RT-PCR analyses. First-strand cDNA synthesis was performed from 1 μg RNA in a 20 μl reaction mixture using the high-capacity eDNA Reverse Transcription Kit (Applied Biosystems, Foster City, Calif.). Cathepsin D (CTSD) and GAPDH transcripts were amplified using commercially available TaqMan® Gene expression assays (Applied Biosystems, Foster City, Calif.). Relative gene expression was calculated with the 2-Ct method using GAPDH as a housekeeping gene. Pfaffl M W., Nucleic Acids Res 2001; 29:e45.

LC3B = LC3B immunocytochemistry; format: cell-based, human; details: 5 μM, 24 hours, A498 and 786-0
Protocol: Immunocytochemistry. Cells were plated on chamber slides and allowed to attach overnight. Cells were then treated for 24 h with ROC-325. Following drug treatment, cells were fixed with 4% paraformaldehyde, permeabilized using 0.2% triton-X-100, and incubated overnight with anti-LC3B antibody. Alexa Fluor 594 conjugated fluorescent secondary antibody was used to visualize protein localization. Dapi was utilized to stain the nucleus. Images were captured using an Olympus fluorescent microscope (Center Valley, Pa.) with a DP71 camera and a 60× objective. Image-Pro Plus software Version 6.2.1 (MediaCybernetics, Bethesda, Md.) was used for image acquisition.

LC3B, p62, cathepsin D = experiment: Immunoblotting of autophagy markers and autophagic flux with bafilomycin A1; format: cell-based, human
Protocol: Immunoblotting. Renal cancer cells were incubated with ROC-325 for 24 h. Cells were harvested and were then lysed as previously described. Nawrocki S T, Carew J S, Maclean K H, Courage J F, Huang P, Houghton J A, Cleveland J L, Giles F J, McConkey D J. Myc regulates aggresome formation, the induction of Noxa, and apoptosis in response to the combination of bortezomib and SAHA. Blood 2008; 112:2917-26. Approximately 50 μg of total cellular protein from each sample were subjected to SDS-PAGE, proteins were transferred to nitrocellulose membranes, and the membranes were blocked with 5% nonfat milk in a Tris-buffered saline solution containing 0.1% Tween-20 for 1 h. The blots were then probed overnight at 4° C. with primary antibodies, washed, and probed with species-specific secondary antibodies coupled to horseradish peroxidase. Immunoreactive material was detected by enhanced chemiluminescence (West Pico, Pierce, Inc., […]. Ill.).

## CCN(CCO)CCCC(C)Nc1ccnc2cc(Cl)ccc12 (stereo not drawn) [HCQ, hydroxychloroquine, reference compound]
A498
  IC50: 52 µM
A549
  IC50: > 75 µM
CFPAC-1
  IC50: > 75 µM
COLO-205
  IC50: 51 µM
DLD-1
  IC50: > 75 µM
IGROV-1
  IC50: > 75 µM
MCF-7
  IC50: > 75 µM
MiaPaCa-2
  IC50: > 75 µM
NCI-H69
  IC50: 54 µM
PC-3
  IC50: 58 µM
RL
  IC50: 35 µM
UACC-62
  IC50: > 75 µM

## CCN(CC)CCNc1ccc(C)c2sc3ccccc3c(=O)c12 [LUC, lucanthone]
[1]
  anticancer activity compared to CQ: approximately 10 ×

## Cc1ccc(NCCN(C)CCNc2ccnc3cc(Cl)ccc23)c2c(=O)c3ccccc3sc12 [ROC-325]
A498
  IC50: 4.9 µM
A549
  IC50: 11 µM
CFPAC-1
  IC50: 4.6 µM
COLO-205
  IC50: 5.4 µM
DLD-1
  IC50: 7.4 µM
IGROV-1
  IC50: 11 µM
MCF-7
  IC50: 8.2 µM
MiaPaCa-2
  IC50: 5.8 µM
NCI-H69
  IC50: 5 µM
PC-3
  IC50: 11 µM
RL
  IC50: 8.4 µM
UACC-62
  IC50: 6 µM
[2]
  lower IC50s than HCQ: approximately 10 fold
[3]
  more effective at diminishing RCC cell viability than HCQ: approximately 10 fold
[4]
  cell viability of normal renal cells: marginal reduction in cell viability
RCC cells [5]
  percentages of cells with active caspase-3 expression: dose-dependent increases
RCC cells [5]; PI-FACS
  percentages of cells with fragmented DNA: dose-dependent increases
786-0 RCC xenografts; 25, 40, or 50 mg/kg PO, nude mice
  tolerability: well tolerated
786-0 RCC xenografts; 25, 40, or 50 mg/kg QD PO, 786-0 xenografts in nude mice
  disease progression (tumor volume): significant, dose-dependent inhibition of disease progression
786-0 RCC xenografts; 786-0 xenograft specimens
  LC3B in tumors (immunohistochemistry): significant, dose-dependent increases
  apoptosis in tumors (cleaved caspase-3 immunohistochemistry): increased apoptosis
  p62 in tumors (immunohistochemistry): significant, dose-dependent increases
786-0 RCC xenografts; highest dose, end of study (Day 46)
  mean body weight: very modest, non-significant reduction
786-0 RCC xenografts; mice, PO
  oral bioavailability: orally bioavailable
A498 and 786-O cells
  cytosolic vacuolization: induced cytosolic vacuolization
RCC cells [6]
  autophagosomes: promoted the accumulation of autophagosomes
786-O and A498 cells
  acridine orange fluorescence (lysosomal membrane permeability): significant loss of acridine orange fluorescence
Cathepsin D (CTSD)
  CTSD levels: highly significant increase
LC3B
  LC3B distribution and levels: formation of LC3B punctae and a robust increase in LC3B levels
LC3B, p62, cathepsin D; 786-0, alone and combined with bafilomycin A1
  autophagic flux: effectively inhibited autophagic flux
LC3B, p62, cathepsin D; A498 and 786-0, 24 h
  LC3B expression (immunoblotting): dose-dependent increase
  levels of p62 and cathepsin D (immunoblotting): corresponding increase
